Reference: patent publication US20240228647A1, “OFATUMUMAB FOR TREATING MULTIPLE SCLEROSIS IN ASIAN PATIENTS” (Novartis AG, priority 2021, published 2024)
Where two headings read alike, the source gives them in different places. Marks after values point to notes of the source that are not given here.

How the values were obtained:
patients with RMS [1] = experiment: Annualized rate of new or enlarging T2 lesions, Phase III Studies I and II; type: in vivo, human; settings: for New or enlarging T2 lesions rate reduction (%): vs teriflunomide
Description: (§1) Ofatumumab was investigated in 1882 patients with RMS from two identical Phase III randomized, double-blind, double-dummy, active-comparator controlled, parallel-group, multicenter studies of identical design (Study I and Study II). Patients were randomized to receive either ofatumumab, OMB (20 mg s.c injections every 4 weeks, after an initial loading regimen of 3 injections on Day 1, 7, and 14), or teriflunomide, TER (14 mg p.o. once a day) as active comparator. For brevity, the teriflunomide data are not shown hereinafter.
(§2) The maximum treatment duration for an individual patient was 30 study months (approximately 2.5 years). The two studies included a total of 71 patients of Asian race (36 patients in ofatumumab and 35 patients in teriflunomide treatment groups). This Example also includes the Asian patients data from oncology studies (Study A and Study B), as supportive data, where required.
The annualized rate of new or enlarging T2 lesions was a key secondary efficacy endpoint in the pivotal Phase III studies.

[2] = tested on: patients with Relapsing Multiple Sclerosis; settings: for COVID-19 outcome / COVID-19 symptoms duration: serious case
patients with RMS [3] = experiment: Phase II study, Japan and non-Japan subgroups of patients with RMS; type: in vivo, human
patients with RMS [4] = experiment: Annualized relapse rate (ARR), confirmed relapses, Phase III Studies I and II; type: in vivo, human; settings: for ARR (number of relapses/patient years) / Adjusted ARR (9559) / Number of relapses (confirmed): FAS; for ARR rate reduction (%): vs teriflunomide
Description: as §1, §2
ARR was the primary efficacy endpoint in the pivotal Phase III studies. Treatment with ofatumumab and teriflunomide were both associated with relatively low ARRs. in the Asian subgroups, with 4 to 5 confirmed relapses in any of the treatment groups (ARRs of 0.08-0.09) (Table 2).

[5] = patient 5409018, OMB interrupted
[6] = patient 5608014, OMB interrupted
[7] = patient 5800004, drug withdrawn
[8] = patient 5801015, OMB interrupted

Substance: ofatumumab [OMB]
- New or enlarging lesions/patient years (lesion years) (patients with RMS [1]; Asian): (1.00)
- Number of new or enlarging lesions (patients with RMS [1]; Asian): 44/44
- New or enlarging lesions/patient years (lesion years) (patients with RMS [1]; Rest of World): (0.84
- Number of new or enlarging lesions (patients with RMS [1]; Rest of World): 1185/1404
- Reduction of rate of new or enlarging T2 lesions compared with teriflunomide (patients with RMS [1]; overall population): 82.9%
- New or enlarging T2 lesions rate reduction (%) (patients with RMS [1]; Asian): 59.0/0.041* %
- New or enlarging T2 lesions rate reduction (%) (patients with RMS [1]; Rest of World): 83.3/<0.001* %
- COVID-19 outcome Ongoing, cases ([2]; non-serious cases (n = 29)): 0
- COVID-19 outcome Recovered, cases ([2]; non-serious cases (n = 29)): 29
- COVID-19 outcome Recovering, cases ([2]; non-serious cases (n = 29)): 0
- Complete recovery from COVID-19, cases ([2]; of 35 confirmed cases): 34
- COVID-19 outcome [2, 5]: Complete
- COVID-19 symptoms duration [2, 5]: ~50 days
- COVID-19 outcome [2, 6]: Complete
- COVID-19 symptoms duration [2, 6]: 18 days
- COVID-19 outcome [2, 7]: Fatal
- COVID-19 symptoms duration [2, 7]: ~30 days
- COVID-19 outcome ([2]; patient 5800043, OMB continued): Complete
- COVID-19 symptoms duration ([2]; patient 5800043, OMB continued): 11 days
- COVID-19 outcome [2, 8]: Complete
- COVID-19 symptoms duration [2, 8]: 15 days
- COVID-19 outcome ([2]; patient 5806001, OMB continued): Complete
- COVID-19 symptoms duration ([2]; patient 5806001, OMB continued): 10 days
- COVID-19 outcome Fatal, cases ([2]; serious cases (n = 6)): 1
- COVID-19 outcome Recovered, cases ([2]; serious cases (n = 6)): 5
- Depletion of CD19+ B-cells and CD3+CD20+ T-cells (patients with RMS [3]): rapid and consistent depletion
- Efficacy vs. placebo in lesion suppression (patients with RMS [3]; Phase II study): superior efficacy
- ARR (number of relapses/patient years) (patients with RMS [4]; Asian (race)): (0.084)
- Adjusted ARR (9559) (patients with RMS [4]; Asian (race)): 0.08 (0.03, 0.24)
- Number of relapses (confirmed) (patients with RMS [4]; Asian (race)): 4/47
- ARR (number of relapses/patient years) (patients with RMS [4]; Rest of World (race)): (0.122)
- Adjusted ARR (9559) (patients with RMS [4]; Rest of World (race)): 0.12 (0.10, 0.14)
- Number of relapses (confirmed) (patients with RMS [4]; Rest of World (race)): 181/1490
- Reduction of adjusted ARR compared with teriflunomide (patients with RMS [4]; overall population): 52.6%
- ARR rate reduction (%) (patients with RMS [4]; Asian (race)): 11.8/0.862%
- ARR rate reduction (%) (patients with RMS [4]; Rest of World (race)): 53.3/<0.001* %
- ARR rate reduction (%) (patients with RMS [4]; Rest of World (race), listed as ofatumumab): 53.3%
